Experiments:
NB4 naïve cells = assay: Viability of NB4 naïve cells (apoptosis assay, Annexin V/7AAD); assay type: cell-based; settings: 48 hours
Protocol: (§1) In particular, the effects of Metformin, Dichloroacetate (DCA) and Artesunate (ART) in combination with arsenic trioxide were evaluated. […] Methods i) In vitro cytotoxicity assay: 10^5 cells/well were seeded in a 96 well plate and treated with increasing concentration of artesunate and arsenic trioxide and incubated for 48 hours. At the end of 48 hrs MTT was added, followed by SDS to solubilize the formazan crystals formed by the viable cells. The absorbance was measured on an ELISA plate reader SpectraMaxM4 (Molecular Devices) at a test wavelength of 570 nm and a reference wavelength of 630 nm to measure the optical density. […] An IC-50 value was generated if significant cytotoxicity was detected. […] CO2 incubator, the viability of the leukemic cells was measured using an Annexin V/7-aminoactinomycin D (7AAD) apoptosis assay kit (BD Pharmingen, San Diego, Calif., USA) as per the manufacturer's protocol. The flow cytometry data were analysed using Cell Quest pro software (BD Biosciences, San Jose, Calif., USA). iii) Measurement of Glucose Uptake: 5×10^5 cells were stained with 2-NBDG (fluorescent analogue of 2-Deoxyglucose) for 10 minutes, washed and the fluorescence measured at 485 nm/595 nm using Spectramax M4. […] The ratio of red to green fluorescence (590/530) was calculated and the Δψm of treated cells compared with the untreated cells.

[1] = tested on: ATO resistant cell lines (NB4-EVAsR1, UF-1); assay: Viability of ATO resistant cell lines (apoptosis assay); assay type: cell-based; settings: NB4-EVAsR1 and UF-1; 48 hours
Protocol: as §1

[2] = mouse, in vivo
Protocol: To further validate this in vitro observation, in vivo studies were performed on a mouse model of acute promyelocytic leukemia.

U937 cells = assay: Viability of U937 cells (apoptosis assay, Annexin V/7AAD); assay type: cell-based; settings: 48 hours
Protocol: The half-maximal inhibitory concentration (IC-50) values were generated using Graph Pad Prism5 software (La Jolla, Calif., USA). ii) Apoptosis Assay: Leukemic cell lines were added (2×10^5 cells/well) in 24-well plates and treated with different drugs reported to disrupt the metabolic adaptation of the leukemia cells along with appropriate controls. After 48 h of incubation at 37° C. CO2 incubator, the viability of the leukemic cells was measured using an Annexin V/7-aminoactinomycin D (7AAD) apoptosis assay kit (BD Pharmingen, San Diego, Calif., USA) as per the manufacturer's protocol. The flow cytometry data were analysed using Cell Quest pro software (BD Biosciences, San Jose, Calif., USA). iii) Measurement of Glucose Uptake: 5×10^5 cells were stained with 2-NBDG (fluorescent analogue of 2-Deoxyglucose) for 10 minutes, washed and the fluorescence measured at 485 nm/595 nm using Spectramax M4.

[3] = tested on: malignant cells (NB4 naïve, NB4-EVAsR1, U937, THP-1, Kasumi, Jurkat cell lines); assay: Apoptosis assay on leukemic cell lines (FIG. 5); assay type: cell-based; settings: 2 μM ATO, 5 μM ART, 48 hours
Protocol: as §1

[4] = tested on: acute promyelocytic leukemia (APL); settings: standard of care; cited from earlier work

With `O=CC[C@@H](O)[C@H](O)[C@H](O)CO` [2-DOG, 2-Deoxy-D-glucose] the “viability of NB4 naïve cells” value (NB4 naïve cells) was “sensitive” and the “viability of the ATO resistant cell lines” value [1] was “resistant”.

In the case of `NCC(=O)CCC(=O)O` [ALA, Delta-aminolevulinic acid], the toxicity in mice [2] is reported as “significant toxicity” and the “viability of AML cells (Annexin V-/7AAD- cells)” value (U937 cells; ATO 1 μM, ART 5 μM, ALA 1 mM, DFO 20 μM, FIG. 7) is reported as “did not affect”.

In the case of `C[C@H]1[C@H](OC(=O)CCC(=O)O)O[C@@H]2O[C@@]3(C)CC[C@H]4[C@H](C)CC[C@@H]1[C@@]24OO3` [ART, artesunate], the “effect on the malignant cells (Annexin V-/7AAD- cells)” value [3] is reported as “did not have a significant effect”.

For `N#CC(C#N)=NNc1ccc(OC(F)(F)F)cc1` [FCCP, Carbonyl cyanide-4-(trifluoromethoxy)phenylhydrazone], the “viability of the ATO resistant cell lines” value [1] was “remained unaffected”.

For `CN(C)C(=N)N=C(N)N` [Metformin], the “effect on the malignant cells (Annexin V-/7AAD- cells)” value [3] was “did not have a significant effect”.

In the case of Arsenic trioxide [ATO], the “outcome in the management of APL” value [4] is listed as “greater than 80%”.

With hemin the “viability of AML cells (Annexin V-/7AAD- cells)” value (U937 cells; hemin instead of ALA, FIG. 8) was “did not affect”.

— patent publication US11400112B2, “Combination therapy for treatment of leukemia” (St George's Hospital Medical School, priority 2018, dated 2022)
